Activity calls are given as the source filed them. The rule behind the calls is not given here. Positions of bridges follow the written chain, without caps; N, C: chain ends. Residues, ends and D or L forms follow the SMILES beside them.
Legend:
[1] = molecular target: T1, Neuronal acetylcholine receptor; alpha9/alpha10 (Homo sapiens) (UniProt Q9UGM1+Q9GZZ6); assay: Antagonist activity at human alpha9alpha10 nAChR expressed in Xenopus laevis oocytes assessed as inhibition of ACh-induced current amplitude at -80 mV holding potential at 10 uM by two-electrode voltage clamp method; format: cell-based; conditions: Oocyte
[2] = molecular target: T1, Neuronal acetylcholine receptor; alpha9/alpha10 (Homo sapiens); assay: Antagonist activity at human alpha9alpha10 nAChR expressed in Xenopus laevis oocytes assessed as inhibition of ACh-induced current amplitude at -80 mV holding potential at 1 uM by two-electrode voltage clamp method; format: cell-based; conditions: Oocyte

CC[C@H](C)[C@@H]1NC(=O)[C@H](CC(=O)O)NC(=O)[C@@H]2CCCN2C(=O)[C@H](CC(N)=O)NC(=O)[C@H](CC(N)=O)NC(=O)[C@H](C(C)C)NC(=O)[C@H](CO)NC(=O)[C@@H]2CSSC[C@H](NC(=O)CN)C(=O)N[C@@H](CSSC[C@@H](C(N)=O)NC1=O)C(=O)N[C@@H](C)C(=O)N[C@@H](Cc1cnc[nH]1)C(=O)N1CCC[C@H]1C(=O)N[C@@H](C)C(=O)N2 (H-GCCAHPACSVNNPDIC-NH2; disulfide 2-8, 3-16)
inhibition ([1]; filed as antagonist): Active

CC[C@H](C)[C@@H]1NC(=O)[C@H](CC(=O)O)NC(=O)[C@@H]2CCCN2C(=O)[C@H](CC(N)=O)NC(=O)[C@H](CC(N)=O)NC(=O)[C@H](C(C)C)NC(=O)[C@H](CO)NC(=O)[C@@H]2CSSC[C@H](NC(=O)CN)C(=O)N[C@@H](CSSC[C@@H](C(N)=O)NC1=O)C(=O)N[C@@H](CO)C(=O)N[C@@H](C)C(=O)N1CCC[C@H]1C(=O)N[C@@H](C)C(=O)N2 (H-GCCSAPACSVNNPDIC-NH2; disulfide 2-8, 3-16)
inhibition [1]: 20%

CC[C@H](C)[C@@H]1NC(=O)[C@H](CC(=O)O)NC(=O)[C@@H]2CCCN2C(=O)[C@H](CC(N)=O)NC(=O)[C@H](CC(N)=O)NC(=O)[C@H](C(C)C)NC(=O)[C@H](C)NC(=O)[C@@H]2CSSC[C@H](NC(=O)CN)C(=O)N[C@@H](CSSC[C@@H](C(N)=O)NC1=O)C(=O)N[C@@H](CO)C(=O)N[C@@H](Cc1cnc[nH]1)C(=O)N1CCC[C@H]1C(=O)N[C@@H](C)C(=O)N2 (H-GCCSHPACAVNNPDIC-NH2; disulfide 2-8, 3-16)
inhibition ([1]; filed as antagonist): Active

CC[C@H](C)[C@@H]1NC(=O)[C@H](CC(=O)O)NC(=O)[C@@H]2CCCN2C(=O)[C@H](Cc2cnc[nH]2)NC(=O)[C@H](CC(N)=O)NC(=O)[C@H](C(C)C)NC(=O)[C@H](CO)NC(=O)[C@@H]2CSSC[C@H](NC(=O)CN)C(=O)N[C@@H](CSSC[C@@H](C(N)=O)NC1=O)C(=O)N[C@@H](CO)C(=O)N[C@@H](Cc1cnc[nH]1)C(=O)N1CCC[C@H]1C(=O)N[C@@H](C)C(=O)N2 (H-GCCSHPACSVNHPDIC-NH2; disulfide 2-8, 3-16)
inhibition [2]: 20% | inhibition ([2]; filed as antagonist): 40%

— ChEMBL document CHEMBL5150017, “Mechanism of Action and Structure-Activity Relationship of α-Conotoxin Mr1.1 at the Human α9α10 Nicotinic Acetylcholine Receptor” (J Med Chem, 2022)
